The target in assay [1] is T1, Gonadotropin-releasing hormone receptor (Rattus norvegicus, UniProt P30969).
T1 sequence (P30969 whole entry): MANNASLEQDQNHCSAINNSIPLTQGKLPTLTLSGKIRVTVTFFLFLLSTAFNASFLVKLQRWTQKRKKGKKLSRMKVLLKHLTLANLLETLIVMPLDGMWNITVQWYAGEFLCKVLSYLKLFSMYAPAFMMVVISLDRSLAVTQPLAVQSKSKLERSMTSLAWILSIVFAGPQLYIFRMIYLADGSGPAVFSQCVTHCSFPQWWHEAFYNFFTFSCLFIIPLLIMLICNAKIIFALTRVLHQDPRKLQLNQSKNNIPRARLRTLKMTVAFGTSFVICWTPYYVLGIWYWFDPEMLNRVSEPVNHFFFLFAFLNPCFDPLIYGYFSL
As to the kind of experiment: Inhibition GnRH-stimulated luteinizing hormone (LH) release from rat pituitary cells. It counts as functional, cell-based, Pituitary gland cell.

Assay [2] concerns the target T1, Gonadotropin-releasing hormone receptor. In words: Inhibition of [125I]buserelin binding to rat pituitary Gonadotropin-releasing hormone receptor, in the absence of bovine serum albumin (BSA).
For assay [3] the target is unchanged. In words: Inhibition of [125I]buserelin binding to rat pituitary Gonadotropin-releasing hormone receptor, in the presence of 0.1% bovine serum albumin.

The compound `Cc1cc(C)cc(-c2[nH]c3ccccc3c2CCNCCCCc2ccc(O)cc2)c1` showed an IC50 in assay [1] of more than 6200 nM.
`Cc1cc(C)cc(-c2[nH]c3ccc(C(=O)N4C(C)CCC4C)cc3c2CCNCCCCc2ccc(NS(C)(=O)=O)cc2)c1` (stereo not given): the IC50 in assay [1] came out at 95 nM; in assay [2], 3 nM; in assay [3], 0.2 nM.
For `CCN(CC)C(=O)C(C)(C)c1ccc2[nH]c(-c3cc(C)cc(C)c3)c(CCNCCCCc3ccc(NS(C)(=O)=O)cc3)c2c1` the same measures were 42 nM, 2 nM and 0.2 nM.
Consider `Cc1cc(C)cc(-c2[nH]c3ccc(C(=O)N4CCOCC4)cc3c2CCNCCCCc2ccc(O)cc2)c1`, for which the figures for the IC50 in assay [1] and in assay [2] were 800 nM and 4 nM, respectively.
Consider `Cc1cc(C)cc(-c2[nH]c3ccc(C(C)(C)C(=O)N4C(C)CCC4C)cc3c2CCNCCCCc2ccc(NS(C)(=O)=O)cc2)c1` (stereo not given), for which the 50% inhibitory concentration (IC50) in assay [1] came out at 65 nM; in assay [2] it was 3 nM; in assay [3] it was 0.2 nM.
For the compound `CCCN(CCC)C(=O)c1ccc2[nH]c(-c3cc(C)cc(C)c3)c(CCNCCCCc3ccc(NS(C)(=O)=O)cc3)c2c1`, the IC50 in assay [1] is 140 nM; in assay [2], 5 nM.
For `Cc1cc(C)cc(-c2[nH]c3ccc(C(=O)N(C)C)cc3c2CCNCCCCc2ccc(NS(C)(=O)=O)cc2)c1`, in that order: 690 nM and 2 nM.
For `CCOC(=O)Cc1ccc2[nH]c(-c3cc(C)cc(C)c3)c(CCNCCCCc3ccc(NS(C)(=O)=O)cc3)c2c1`, in that order: 2000 nM and 2 nM.
Turning to `Cc1cc(C)cc(-c2[nH]c3ccc(C(=O)N(CC(C)C)CC(C)C)cc3c2CCNCCCCc2ccc(NS(C)(=O)=O)cc2)c1`, the figures for the 50% inhibitory concentration (IC50) in assay [1] and in assay [3] were 32 nM and 0.4 nM, respectively.
Consider `CCCN(CCC)C(=O)C(C)(C)c1ccc2[nH]c(-c3cc(C)cc(C)c3)c(CCNCCCCc3ccc(NS(C)(=O)=O)cc3)c2c1`, for which the IC50 in assay [1] was 70 nM; in assay [2], 5 nM; in assay [3], 0.4 nM.
For `Cc1cc(C)cc(-c2[nH]c3ccc(C(C)(C)C(=O)N(C)C)cc3c2CCNCCCCc2ccc(NS(C)(=O)=O)cc2)c1` the same measures were 160 nM, 3 nM and 0.1 nM.
Turning to `CCOC(=O)C(C)(C)c1ccc2[nH]c(-c3cc(C)cc(C)c3)c(CCNCCCCc3ccc(NS(C)(=O)=O)cc3)c2c1`, the IC50 in assay [1] was 150 nM; in assay [2], 3 nM; in assay [3] it was 0.3 nM.
For `Cc1cc(C)cc(-c2[nH]c3ccc(CC(=O)N(C)C)cc3c2CCNCCCCc2ccc(NS(C)(=O)=O)cc2)c1` the same measures were 320 nM, 2 nM and 0.1 nM.
For `CCOC(=O)C(C)c1ccc2[nH]c(-c3cc(C)cc(C)c3)c(CCNCCCCc3ccc(NS(C)(=O)=O)cc3)c2c1` (stereo not given) the same measures were 610 nM, 4 nM and 0.5 nM.
Take `Cc1cc(C)cc(-c2[nH]c3ccc(C(=O)N4CCOCC4)cc3c2CCNCCCCc2ccc(NS(C)(=O)=O)cc2)c1`: the results for the IC50 in assay [1], in assay [2] and in assay [3] were 400 nM, 2 nM and 0.2 nM, respectively.
For `Cc1cc(C)cc(-c2[nH]c3ccc(C(=O)N4CCCCC4)cc3c2CCNCCCCc2ccc(NS(C)(=O)=O)cc2)c1`, the figures for the half-inhibitory concentration (IC50) in assay [1] and in assay [2] were 220 nM and 2 nM, respectively.
For the compound `CCN(CC)C(=O)c1ccc2[nH]c(-c3cc(C)cc(C)c3)c(CCNCCCCc3ccc(O)cc3)c2c1`, the IC50 in assay [1] was 540 nM; in assay [2], 6 nM; in assay [3], 0.5 nM.
In turn, `Cc1cc(C)cc(-c2[nH]c3ccc(C(=O)NCc4ccccc4)cc3c2CCNCCCCc2ccc(O)cc2)c1` displayed a 50% inhibitory concentration (IC50) in assay [2] of 24 nM.
For the compound `CCN(CC)C(=O)C(C)c1ccc2[nH]c(-c3cc(C)cc(C)c3)c(CCNCCCCc3ccc(NS(C)(=O)=O)cc3)c2c1` (stereo not given), the concentration for half-maximal inhibition (IC50) in assay [1] was 130 nM; in assay [2], 2 nM; in assay [3] it was 0.2 nM.
In the case of `CCN(CC)C(=O)c1ccc2[nH]c(-c3cc(C)cc(C)c3)c(CCNCCCCc3ccc(NS(C)(=O)=O)cc3)c2c1`, the IC50 in assay [1] is 270 nM; in assay [2], 2 nM; in assay [3] it was 0.2 nM.
In the case of `CCCCN(CC)C(=O)c1ccc2[nH]c(-c3cc(C)cc(C)c3)c(CCNCCCCc3ccc(NS(C)(=O)=O)cc3)c2c1`, the results for the IC50 in assay [1] and in assay [2] were 240 nM and 4 nM, respectively.
Take `Cc1cc(C)cc(-c2[nH]c3ccc(C(=O)N(C(C)C)C(C)C)cc3c2CCNCCCCc2ccc(NS(C)(=O)=O)cc2)c1`: the figures for the 50% inhibitory concentration (IC50) in assay [1], in assay [2] and in assay [3] were 72 nM, 3 nM and 0.3 nM, respectively.
Regarding `Cc1cc(C)cc(-c2[nH]c3ccc(C(C)(C)C(=O)N4CCOCC4)cc3c2CCNCCCCc2ccc(NS(C)(=O)=O)cc2)c1`, the IC50 in assay [1] was determined as 81 nM; in assay [3], 0.12 nM.
Consider `Cc1cc(C)cc(-c2[nH]c3ccc(C(=O)N(CC(C)C)CC(C)C)cc3c2CCNCCCCc2ccc(O)cc2)c1`, for which, in assay [1], the IC50 was 380 nM.
`CCNC(=O)c1ccc2[nH]c(-c3cc(C)cc(C)c3)c(CCNCCCCc3ccc(NS(C)(=O)=O)cc3)c2c1`: the results for the 50% inhibitory concentration (IC50) in assay [1] and in assay [2] were 2400 nM and 6 nM, respectively.
Regarding `Cc1cc(C)cc(-c2[nH]c3ccc(OC(=O)N(C)C)cc3c2CCNCCCCc2ccc(O)cc2)c1`, the IC50 in assay [2] stood at 3 nM.
On to `CCOC(=O)c1ccc2[nH]c(-c3cc(C)cc(C)c3)c(CCNCCCCc3ccc(O)cc3)c2c1`, for which the 50% inhibitory concentration (IC50) in assay [2] came out at 32 nM.
As to `CCOC(=O)c1ccc2[nH]c(-c3cc(C)cc(C)c3)c(CCNCCCCc3ccc(NS(C)(=O)=O)cc3)c2c1`, the IC50 is more than 6200 nM in assay [1] and 14 nM in assay [2].
In the case of `Cc1cc(C)cc(-c2[nH]c3ccc(C(C)(C)C(=O)N4CCCC4)cc3c2CCNCCCCc2ccc(NS(C)(=O)=O)cc2)c1`, the half-inhibitory concentration (IC50) in assay [1] is 40 nM; in assay [2], 2 nM; in assay [3] it was 0.2 nM.
For `Cc1cc(C)cc(-c2[nH]c3ccc(C(=O)N4CCCC4)cc3c2CCNCCCCc2ccc(NS(C)(=O)=O)cc2)c1`, in that order: 510 nM, 4 nM and 0.2 nM.
In the case of `CCN(C(=O)c1ccc2[nH]c(-c3cc(C)cc(C)c3)c(CCNCCCCc3ccc(NS(C)(=O)=O)cc3)c2c1)C(C)(C)C`, the IC50 in assay [1] is 660 nM; in assay [3], 0.8 nM.
Turning to `CCN(C(=O)c1ccc2[nH]c(-c3cc(C)cc(C)c3)c(CCNCCCCc3ccc(NS(C)(=O)=O)cc3)c2c1)C(C)C`, the values for the IC50 in assay [1] and in assay [2] were 120 nM and 3 nM, respectively.
For the compound `CCN(CC)C(=O)Cc1ccc2[nH]c(-c3cc(C)cc(C)c3)c(CCNCCCCc3ccc(NS(C)(=O)=O)cc3)c2c1`, the IC50 was 130 nM in assay [1], 3 nM in assay [2] and 0.2 nM in assay [3].
`Cc1cc(C)cc(-c2[nH]c3ccc(C(=O)N4C5CCC4CC5)cc3c2CCNCCCCc2ccc(NS(C)(=O)=O)cc2)c1`: the values for the IC50 in assay [1], in assay [2] and in assay [3] were 210 nM, 3 nM and 0.4 nM, respectively.
`Cc1cc(C)cc(-c2[nH]c3ccc(CC(=O)N4C(C)CCC4C)cc3c2CCNCCCCc2ccc(NS(C)(=O)=O)cc2)c1` (stereo not given): the IC50 stood at 95 nM in assay [1], 3 nM in assay [2] and 0.1 nM in assay [3].
As for `Cc1cc(C)cc(-c2[nH]c3ccc(C(=O)N(C)C)cc3c2CCNCCCCc2ccc(O)cc2)c1`, the values for the IC50 in assay [1] and in assay [2] were 820 nM and 5 nM, respectively.

(Values after ChEMBL document CHEMBL1134122, “Substituted indole-5-carboxamides and -acetamides as potent nonpeptide GnRH receptor antagonists” (Bioorg Med Chem Lett, 2001).)
